CC(C)(C)OC(=O)N[C@@H](CCCN=C(N)N[N+](=O)[O-])C(=O)O
solubility (mole fraction)
Details	283.15 K	288.15 K	293.15 K	298.15 K	303.15 K	308.15 K	313.15 K	318.15 K	323.15 K
in DMF	0.164	0.185	0.211	0.246	0.29	0.346	0.415	0.505	0.62
in acetonitrile	0.0012	0.00144	0.00168	0.00193	0.00222	0.00262	0.00324	0.00392	0.00491
in ethanol	0.015	0.0188	0.0234	0.0282	0.0327	0.0391	0.0469	0.0563	0.0666
in ethyl acetate	0.000705	0.000846	0.000955	0.00104	0.00114	0.0013	0.00147	0.00161	0.00187
in isobutanol	0.00231	0.00296	0.00394	0.00499	0.00618	0.00799	0.00954	0.0112	0.0143
in isopropanol	0.00489	0.0067	0.00844	0.0102	0.0127	0.0152	0.0184	0.0224	0.0267
in methanol	0.042	0.0507	0.0601	0.0692	0.0752	0.0824	0.0908	0.0976	0.111
in n-butanol	0.00377	0.00498	0.00583	0.00707	0.00842	0.00996	0.0121	0.0142	0.0172
in n-pentanol	0.00254	0.00351	0.0042	0.00489	0.00595	0.00735	0.00886	0.0106	0.013
in n-propanol	0.00543	0.00744	0.00919	0.0114	0.0132	0.0161	0.0195	0.0236	0.0285
in sec-butanol	0.00398	0.00546	0.00729	0.00896	0.0113	0.0138	0.0162	0.0192	0.0222
in water	0.000283	0.000334	0.000356	0.000404	0.000471	0.000522	0.000643	0.000799	0.000986

From BigSolDB 2.1
